In patent EP0536208B1, “1,2-DIHYDRO-3H-DIBENZISOQUINOLINE-1,3-DIONE ANTICANCER AGENTS” (RESEARCH CORPORATION TECHNOLOGIES, INC., priority 1990, dated 1992):

Legend:
[1] = system: P-388/ADR (adriamycin-Resis-tant); test: Survival study in tumor-bearing mice, P-388/adriamycin resistant model; type: in vivo; details: 10^6 cells in DBA mice; 15 mg/kg; d1,5,9; intraperitoneally
Text: (§1) Thus, in the lower level resistant cell lines, such as the ten-fold mitomycin C resistant L1210 and the tenfold adriamycin resistant 2780 ovarian cancer, Compound 1 maintained its complete activity as shown in Table II. The anti-tumor activity of compounds of the present invention in in vivo mouse murine models were studied. 3) Survival Studies In Tumor-Bearing Mice: 3.1 P-388 Leukemia Modles: One million P-388 leukemia cells originally obtained from American Type Culture Collection (Rockville, MD) are implanted into the peritoneum of adult DBA-2J male mice (Jackson Laboratories, Bar Harbor, ME). Twenty four hours later, drugs diluted in physiological saline are injected intraperitoneally at a volume of 0.1 mL/10 g body weight. The mice (10/group) are then followed for survival daily and compared to untreated tumor bearing mice. […] The perpendicular widths of the tumors are measured by caliper thrice weekly and converted to an estimated tumor mass according to the formula: ((1 X W)^2)/(2)= grams of tumor. [formula] wherein • W = width of tumor • l = length of tumor Tumor growth delay is calculated as the difference in days for tumors in treated mice to reach an estimated mass 750 mg or 1.5 g compared to that in untreated controls: Days to reach 750 mg (Treated - Control) = Days of Tumor Growth Delay [formula] […]

Melanoma = test: Colony forming assay in fresh human tumors; type: cell-based; details: .001 ug/mL continuously, tumor cell survival of less than 50% of control
Experimental: The clonogenic assays were conducted in accordance with the procedure described hereinbelow: 1) Colony Forming Assays in Soft Agar: Fresh human or murine tumors are disaggregated into single cell suspensions using mechanical, hypoosmotic and/or enzymatic (trypsin) methods. The single cells (about 5 X 10^4-10^5) are plated in 35 mm plastic petri dishes onto a 1 ml "feeder layer" of 0.3% agar dissolved in growth medium containing 5-10% vol/vol of heat-inactivated fetal bovine serum, molten 0.3% agar and the antibiotics penicillin (100 u/mL) and streptomycin (100 ug/mL). Drug exposures can be performed for one hour or continuously (drugs added to final plating medium). Tumor cell colonies > 60 uM in size are counted by automated image analysis after 10-20 days of incubation in a humidified, 5-10% CO2-gassed environment maintained at 37°C. Inhibition of colony formation is calculated based on comparisons to control (untreated) plates wherein the growth of hundreds of colonies/plate is typical. […]
Fresh human tumor specimens disaggregated to single cell suspensions and exposed to .001 ug/mL of drug continuously. Percent survival represents the fraction of tumor colonies (> 60 uM size) obtained after drug treatment compared to untreated cells of the same tumor. […] Each tumor sample is analyzed in three different petri dishes (i.e., n = 3 for each sample).

[2] = system: 16-C Mammary Adenocarcinoma; test: Tumor growth delay in mice, Mammary 16-C model; type: in vivo; details: 16-C Mammary Adenocarcinoma (Southern Research Institute)
Experimental: Corbett, T.H., et al., Cancer Chemo Rep., 5 (1975). Mammary 16-C Adenocarcinoma and M5-76 Sarcoma: Chunks of tumor (20-50 mg) are subcutaneously implanted into the flank of B6C3F1 female mice. Drugs (10-45 mg/kg) are dissolved in saline and injected intraperitoneally every four days for three times starting one day after tumor implantation. Tumors are measured bidimensionally as described above and tumor growth delay is calculated at times to reach 1.5 and 3.0 g of tumor mass.

[3] = system: P-388 lymphocytic leukemia; test: Survival study in tumor-bearing mice, P-388 leukemia model; type: in vivo; details: 10^6 cells in DBA mice; 16 mg/kg; d1,5,9; intraperitoneally
Text: as §1

CN(C)CCN1C(=O)c2cccc3cc4ccccc4c(c23)C1=O [Compound 1, 2-[2'-(dimethylamino)ethyl]-1,2-dihydro-3H-dibenz(deh)isoquinoline-1,3-dione]
Experimental Activity, ILS (Percentage Increased Lifespan) [1]: 33 ILS
Overall Response (Melanoma): 64%
Experimental Activity, Days of Tumor Growth Delay [2]: 7 days TT
Experimental Activity, ILS (Percentage Increased Lifespan) [3]: 00:ILS*
